Legend:
Rat A2A receptor = target: T1, Rat A2A receptor (Rattus norvegicus, UniProt P30543); test: Adenosine A2A receptor binding test (3H-CGS 21680 binding); details: 10^−6 mol/L test compound, rat corpus striatum
T1 construct: from tissue; host or cells: rat corpus striatum membrane preparation
Protocol: The final precipitate was suspended in 50 mmol/L Tris-HCl buffer (containing 10 mmol/L magnesium chloride and 0.02 unit/mg tissue of adenosine deaminase (manufactured by Sigma Co.)) by adding the buffer to the final precipitate so as to give a tissue concentration of 5 mg (wet weight)/mL.
Inhibition ratio (%)={1−(amount of the binding in the presence of the test compound−amount of the non-specific binding)/(amount of the total binding−amount of the non-specific binding)}×100

T1 sequence (P30543 whole entry): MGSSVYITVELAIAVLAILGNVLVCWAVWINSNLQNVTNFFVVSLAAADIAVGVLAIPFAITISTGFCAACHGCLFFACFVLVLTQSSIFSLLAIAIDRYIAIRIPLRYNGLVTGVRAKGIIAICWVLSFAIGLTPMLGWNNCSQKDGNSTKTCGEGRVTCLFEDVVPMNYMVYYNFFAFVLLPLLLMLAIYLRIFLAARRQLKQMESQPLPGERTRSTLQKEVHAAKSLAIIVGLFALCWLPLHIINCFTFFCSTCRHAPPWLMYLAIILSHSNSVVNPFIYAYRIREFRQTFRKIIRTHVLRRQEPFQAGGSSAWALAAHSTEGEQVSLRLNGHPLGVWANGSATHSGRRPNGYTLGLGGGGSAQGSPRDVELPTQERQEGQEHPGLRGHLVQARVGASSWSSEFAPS

SMILES: Nc1nc(N2CCN(Cc3cn4cccnc4n3)CC2)cc2nc(-c3ccco3)nn12 [Compound 17, 5-Amino-2-(2-furyl)-7-(4-(imidazo[1,2-a]pyrimidin-2-ylmethyl)piperazinyl)[1,2,4]triazolo[1,5-c]pyrimidine]
- Rat A2A receptor inhibition ratio (%) (Rat A2A receptor): 90%
- melting point: 244 to 246 °C

SMILES: CCC(C)(O)CCN1CCN(c2cc3nc(-c4ccco4)nn3c(N)n2)CC1 (stereo not shown) [Compound 8, 5-Amino-2-(2-furyl)-7-(4-(3-hydroxy-3-methylpentyl)piperazinyl)[1,2,4]triazolo[1,5-c]pyrimidine]
- Rat A2A receptor inhibition ratio (%) (Rat A2A receptor): 84%
- melting point: 196 to 197 °C
